What was measured:
[1] = target: T1, Melanocyte-stimulating hormone receptor (Homo sapiens, UniProt Q01726); test: Agonist activity at human MC1R assessed as increase in alpha-MSH induced cAMP level; type: functional
Target sequence in this assay (Q01726 whole entry): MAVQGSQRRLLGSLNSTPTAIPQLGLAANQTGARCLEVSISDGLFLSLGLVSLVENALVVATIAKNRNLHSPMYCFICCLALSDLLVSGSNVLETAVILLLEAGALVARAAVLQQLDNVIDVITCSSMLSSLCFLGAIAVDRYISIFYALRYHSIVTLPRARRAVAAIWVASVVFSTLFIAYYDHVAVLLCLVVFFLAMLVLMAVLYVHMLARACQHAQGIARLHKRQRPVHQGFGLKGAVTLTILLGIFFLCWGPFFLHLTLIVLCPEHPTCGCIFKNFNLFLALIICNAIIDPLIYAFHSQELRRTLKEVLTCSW

[2] = target: T1, Melanocyte-stimulating hormone receptor; test: Intrinsic agonist activity at human MC1R assessed as increase in alpha-MSH induced cAMP level by measuring maximum response relative to control; type: functional; conditions: filed as agonist
Target sequence in this assay (Q01726 whole entry, looked up): as the sequence (Q01726 whole entry) above

[3] = Metabolic stability in human assessed as intrinsic clearance measured per mg protein; type: ADME
[4] = target: T1, Melanocyte-stimulating hormone receptor; test: Agonist activity at human MC1R assessed as increase in alpha-MSH induced cAMP level at 10 uM relative to control; type: functional
Target sequence in this assay (Q01726 whole entry, looked up): as the sequence (Q01726 whole entry) above

Row | Structure (SMILES) | EC50 [1] [nM] | Intrinsic activity [2] [%] | CL [3] [µL/min] | Activity [4] [%] | Activity ([4]; filed as agonist) [%]
1 | CC(C)(C)N1C[C@@H](C(=O)Nc2nccn2Cc2ccccc2N2CCC(C(=O)O)CC2)[C@H](c2ccc(F)cc2F)C1 | 460 | 104 | < 10 |  | 
2 | Cc1ccc(Cn2ccnc2NC(=O)[C@@H]2CN(C(C)(C)C)C[C@H]2c2ccc(F)cc2F)c(N2CCC(C(=O)O)CC2)c1 | 318 | 101 | 28 |  | 
3 | CC(C)(C)N1C[C@@H](C(=O)Nc2nccn2Cc2ccc(C(F)(F)F)cc2N2CCC(C(=O)O)CC2)[C@H](c2ccc(F)cc2F)C1 | 77 | 158 | 25 |  | 
4 | CC(C)(C)N1C[C@@H](C(=O)Nc2nccn2Cc2ccccc2N2CCCCC2)[C@H](c2ccc(F)cc2F)C1.Cl | 339 | 77 | 610 |  | 
5 | CC(C)(C)N1C[C@@H](C(=O)Nc2nccn2Cc2cccc(Cl)c2)[C@H](c2ccc(F)cc2F)C1 | 1270 | 50 |  |  | 
6 | CC(C)(C)N1C[C@@H](C(=O)Nc2nccn2Cc2ccccc2N2CCC(CC(=O)O)CC2)[C@H](c2ccc(F)cc2F)C1 | 1980 |  | 39 |  | 64
7 | CC(C)(C)N1C[C@@H](C(=O)Nc2nccn2Cc2ccc(Cl)cc2)[C@H](c2ccc(F)cc2F)C1 | > 10000 |  |  | 18 | 
8 | CC(C)(C)N1C[C@@H](C(=O)Nc2nccn2Cc2ccccc2N2CCOCC2)[C@H](c2ccc(F)cc2F)C1.Cl | 219 | 86 | 660 |  | 
9 | CC(C)(C)N1C[C@@H](C(=O)Nc2nccn2Cc2ccccc2Cl)[C@H](c2ccc(F)cc2F)C1 | 1270 | 65 |  |  | 
10 | Cn1c(NC(=O)[C@@H]2CN(C(C)(C)C)C[C@H]2c2ccc(F)cc2F)nc2ccccc21 | > 10000 |  |  | 2.5 | 
11 | CC(C)(C)N1C[C@@H](C(=O)Nc2nccn2Cc2ccccc2N2CCC(C(N)=O)CC2)[C@H](c2ccc(F)cc2F)C1.Cl | 386 | 80 | 450 |  | 
12 | CC(C)(C)N1C[C@@H](C(=O)Nc2nccn2Cc2ccccc2-c2ccccc2)[C@H](c2ccc(F)cc2F)C1 | 527 | 79 | 860 |  | 

Further lines, results first:

Row | EC50 [1] [nM] | Intrinsic activity [2] [%] | CL [3] [µL/min] | Activity [4] [%] | Activity ([4]; filed as agonist) [%] | Structure (SMILES)
13 | > 10000 |  |  | 7 |  | CC(C)(C)N1C[C@@H](C(=O)Nc2nc3ccccc3n2-c2ccccc2)[C@H](c2ccc(F)cc2F)C1
14 | > 10000 |  |  | 2.8 |  | CC(C)(C)N1C[C@@H](C(=O)Nc2ccccc2Cc2ccccc2)[C@H](c2ccc(F)cc2F)C1
15 | > 10000 |  |  | 3.7 |  | CC(C)(C)N1C[C@@H](C(=O)Nc2ncnn2Cc2ccccc2)[C@H](c2ccc(F)cc2F)C1
16 |  |  |  |  | 53 | CC(C)(C)N1C[C@@H](C(=O)Nc2nc3ccccc3n2Cc2ccccc2)[C@H](c2ccc(F)cc2F)C1
17 | > 10000 |  |  | 7.5 |  | CC(C)(C)N1C[C@@H](C(=O)Nc2nc3ccccc3n2CCc2ccccc2)[C@H](c2ccc(F)cc2F)C1
18 | 4660 | 54 |  |  |  | CC(C)(C)N1C[C@@H](C(=O)Nc2nccn2Cc2ccccc2)[C@H](c2ccc(F)cc2F)C1

From ChEMBL document CHEMBL5150041, “Discovery of novel N-(1-benzyl-1H-imidazol-2-yl)amide derivatives as melanocortin 1 receptor agonists” (Bioorg Med Chem Lett, 2022)
